The test system of assay [1] is ARPE-19 cells. Description: Fatty acids against 7KCh-mediated cell death (CCK8). It is filed as cell-based. The protocol:
FIGS. 12A-12C depict ARPE-19 cell viability in response to 12 μM 7KCh with or without 0.1-5 μM (A) sterculic acid and (B) stearic acid after 24 hr treatments. Error bars indicate the standard deviations. n=3-5. Two-tailed Student's t-test. (C) Representative images of changes in cell morphology in response to 12 μM 7KCh with or without 1 μM sterculic acid and stearic acid after 24 hr treatments.
ARPE-19 cells were seeded in 24-well plates with 1×10^5 cells per well and allowed to recover for 16-24 hr. Once confluency reached approximately 90%, the effect of the fatty acids against 7KCh-mediated cell death was examined 24 hr after incubation in serum-free medium with 12 μM 7KCh. Fatty acids were tested at 0.1, 0.5, 1, 5 and 10 μM concentrations. The effects of the fatty acids against 7KCh-mediated inflammation and ER stress were examined by incubating cells in 1 μM fatty acids with either 8 μM 7KCh (24 hr for quantitative real-time PCR (qRT-PCR), 24 and 48 hr for immunoblot), or 6 μM 7KCh for 48 hr (for ELISA). Three individual experiments were performed for each treatment with quadruplicate measurements performed for each experiment in 24-well plates.
The cell viability was determined by the dehydrogenase activity of the ARPE-19 cells using Cell Counting Kit-8 (CCK8, Dojindo, Gaithersburg, Md.) according to manufacturer's protocol.
The lowest effective concentrations of fatty acids that offset the 7KCh-mediated cell death were determined. […] Table 3 lists the lowest concentrations of these fatty acids required to maintain full cell viability against 12 μM 7KCh treatment. All unsaturated fatty acids protected against 7KCh-induced cell death. […] DHA, α-linolenic, and linoleic acid prevented 7KCh-mediated cell death at 5 μM but the rest of unsaturated fatty acids and dihydrosterculic acid required 10 μM to be protective.

For assay [2], the system named is Colon Cancer, SW-620. Description: NCI in vitro anti-cancer cell line screen (SRB). To be noted: Homo sapiens, SW-620, 48 h.
Protocol: (§1) The human tumor cell lines used in the cancer screen panel were grown in RPMI 1640 medium containing 5% FBS and 2 mM L-glutamine. The cells were inoculated into 96-well microtiter plates in 100 μl at plating density ranging from 5000 to 40,000 cell/well. […] Following drug addition, the plates were incubated for an additional 48 h. The assay was terminated by the addition of cold 10% TCA. The supernatant was discarded, and the plates were washed five times with water and air dried. Sulforhodamine B (SRB) solution (100 μl) at 0.4% (w/v) in 1% acetic acid was added to each well, and plates were incubated for 10 min at room temperature. After staining, unbound dye was removed by washing five times with 1% acetic acid and the plates were air dried. Bound stain was subsequently solubilized with 10 mM trizma base, and the absorbance was read on an automated plate reader at a wavelength of 515 nm.
(§2) A sulforhodamine B (SRB) end point was used to calculate the median growth inhibition (GI50). GI50 refers to the concentration at which the drug inhibits tumor cell growth by 50%.
Assay [3] concerns Melanoma, LOX-IMVI. Description: NCI in vitro anti-cancer cell line screen (SRB). To be noted: Homo sapiens, 48 h.
Protocol: as §1, §2
The subject of assay [4] is Leukemia, HL-60 (TB). Description: NCI in vitro anti-cancer cell line screen (SRB). The assay is classed as cell-based. To be noted: Homo sapiens, 48 h.
The test system of assay [5] is ARPE19 cells. Description: Phase-contrast images of cells after co-treatment with 15 μM 7KCh. The assay is classed as cell-based, human. To be noted: 1 μM fatty acid + 15 μM 7KCh, 24 hr. The source says:
FIG. 8 depicts phase-contrast images of ARPE19 cells at 24 hr after sterculic acid co-treatment with 7KCh.

Assay [6] relates to stearoyl-CoA desaturase (SCD). Description: SCD mRNA expression (qRT-PCR). It is filed as cell-based. Here is the method:
FIGS. 18A and 18B depict (A) Dose response of SCD mRNA inductions by 0-12 μM 7KCh after 24 hr treatments. (B) The mRNA expressions of SCD in response to 8 μM 7KCh, 1 μM sterculic acid, 1 μM stearic acid, or the combinations of 7KCh with either sterculic acid or stearic acid. Error bars indicate the standard deviations. n=4.
The RNA was extracted using RNeasy Mini Kit (Qiagen, Valencia, Calif.). The reverse transcription was performed with reagents and kits from Invitrogen. Quantification of mRNA expression was performed using the Taqman gene expression assays and the following primers (VEGFa, Hs00173626_m1; IL-1β, Hs01555413_m1; IL-6, Hs00174131_m1; IL-8, Hs00174103_m1; IκBα, Hs00153283_m1; GRP78, Hs99999174_m1; CHOP, Hs01090850_m1; NOX2, Hs00166163_m1; NOX4, Hs01558199_m1; SCD, Hs00748952 s1; TNF-α, Hs00174128_m1; TGF-β1, Hs00998133_m1; GAPD, 4352934e). GAPD expression was used as an endogenous standard. All qRT-PCR experiments were measured in triplicates in an ABI 7500 Real-Time PCR Instrument (Applied Biosystems, Foster City, Calif.). The results of each treatment were normalized and presented in percentage relative to the vehicle-only control.
To determine the effect of 7KCh on SCD expression ARPE-19 cells were incubated with 4 μM 7KCh for 24 hr. 7KCh suppressed SCD mRNA expression by approximately 60-70% (FIG. 18A). […] Treatment of the cells with 8 μM 7KCh and 1 μM sterculic acid further suppress SCD expression to 86% (FIG. 18B). […] This is the only instance where 7KCh and sterculic acid worked synergistically rather than antagonistically.

Assay [7] has as its system Colon Cancer, HCC-2998. Nature of the assay: NCI in vitro anti-cancer cell line screen (SRB). To be noted: Homo sapiens, HCC 2998, 48 h.
Protocol: as §1, §2
Assay [8] has as its system bFGF-induced angiogenesis. Description: Chick chorioallantonic membrane (CAM) assay. It is filed as in vivo. To be noted: for decrease in blood vessels induced by bFGF: bFGF 5 ng/ml, 72 h. The protocol:
Results shown are reported as the reduction in angiogenic stimulation (vessels counted) compared to untreated controls. A, bFGF (5 ng/ml); B, bFGF (5 ng/ml)+5 μl DMSO; C, bFGF (5 ng/ml)+5 μl DMSO containing 1 μg/ml sterculic acid; D, bFGF (5 ng/ml)+5 μl DMSO containing 10 μg/ml sterculic acid.
Fertilized chick embryos, 9-day old, were maintained in a 48 place table top egg incubator at 37° C. in a specific humidity of 60%. After swabbing the egg shell with 70% alcohol, a small window was cut through the egg shell close to the inner shell surface where the prominent blood vessels are located using a hobby grinding wheel (Dremel Emerson Electric Co., Racine, Wis.). A filter disc saturated with bFGF (5 ng/ml) was placed on the CAM. Sterculic acid dissolved in dimethyl sulfoxide (DMSO) at various concentrations was added to the disc daily over 3-day period of incubation. The controls received the same amount of DMSO. After 72 h the disc and surrounding CAM were excised, inverted and examined under a high power dissecting microscope. The result was reported as reduction in angiogenic stimulation (vessels counted) compared to untreated controls.

As to `CCCCCCCCC1=C(CCCCCCCC(=O)O)C1` [sterculic acid, 8-(2-octacyclopropen-1-yl)octanoic acid], the “cell viability at 0.5 μM” value in assay [1] (0.5 μM + 12 μM 7KCh, 24 hr) is given as “significantly increased cell viability”. The “morphological effects on the cells (images)” value in assay [1] (1 μM + 12 μM 7KCh, 24 hr, FIG. 12C) is “effectively protect”. For the same compound, the “CONC. (μM): lowest concentration required to maintain full cell viability against 7KCh” value in assay [1] (12 μM 7KCh for 24 hr, tested 0.1, 0.5, 1, 5 and 10 μM) turned out to be 1 µM. In addition, in assay [1] (12 μM 7KCh, 24 hr, 0.1-10 μM fatty acid), the “protective effect against 7KCh-mediated cell death” value is given as “by far the most effective compound”. Further, the GI50 in assay [2] worked out at 1 µM; in assay [3], 1 µM; in assay [4], 10 µM; in assay [7] it was 10 µM. In addition, the “cell morphological changes compared to 7KCh alone” value in assay [5] was “much less proportion of dead cell and cell debris”. Also, in assay [6] (1 μM sterculic acid alone), the “inhibition of SCD expression” value is listed as “similarly to 8 μM 7KCh”. Also, in assay [6] (8 μM 7KCh and 1 μM sterculic acid), the “suppression of SCD expression” value was 86%. The “decrease in blood vessels induced by bFGF” value in assay [8] (1 μg/ml sterculic acid in DMSO daily) is recorded as “Significant decrease”; in assay [8] (10 μg/ml sterculic acid in DMSO daily), “more than 3 fold”. For the same compound, the “value observed in the CAM assay” value in assay [8] (compared with the HUVEC IC50) turned out to be 10 µM.

These data come from patent US8993626B2, “Methods of treatment using sterculic acid” (The United States of America, as represented by the …, priority 2010, dated 2015).
